The structures appear in SMILES notation.

For test [1], the target named is T1, Human immunodeficiency virus type 1 integrase (Human immunodeficiency virus 1, UniProt Q7ZJM1). The experiment in a line: Inhibition of HIV1 integrase-mediated 3'-processing activity.
Test [2] deals with Human immunodeficiency virus 1. The experiment in a line: Antiviral activity against HIV1 by focal infectivity assay. Format: functional, organism-based.
Test [3] has as its target T1, Human immunodeficiency virus type 1 integrase. The test can be described thus: Inhibition of HIV1 integrase-mediated integration activity.
Test [4] in a line: Cytotoxicity against HeLa H1-JC.37 cells by MTS assay. In kind it is cell-based. Particulars: Homo sapiens. On the technique in general: Formazan colour is commonly taken as a measure of viable cells.
Test [5] is described as follows: Selectivity ratio of EC50 for HIV1 to IC50 for HeLa H1-JC.37 cells. Format: functional.

T1 sequence (Q7ZJM1 whole entry): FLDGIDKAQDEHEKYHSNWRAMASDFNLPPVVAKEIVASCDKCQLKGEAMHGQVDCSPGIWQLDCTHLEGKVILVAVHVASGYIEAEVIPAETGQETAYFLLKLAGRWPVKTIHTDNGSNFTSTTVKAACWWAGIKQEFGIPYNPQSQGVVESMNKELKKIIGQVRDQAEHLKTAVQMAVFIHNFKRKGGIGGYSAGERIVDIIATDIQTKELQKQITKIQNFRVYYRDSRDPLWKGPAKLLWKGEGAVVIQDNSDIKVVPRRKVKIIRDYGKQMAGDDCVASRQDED

For `O=S(=O)(/C=C/c1ccc2[nH]ccc2c1)CS(=O)(=O)/C=C/c1ccc2[nH]ccc2c1`, the IC50 (in general, the concentration at which inhibition is half-maximal) in test [1] is greater than 100 µM; in test [3] it was 95 µM. Further, in test [2], the EC50 (commonly the concentration giving half of the maximal effect) is greater than 10 µM.
For the compound `O=C(O)c1ccc(/C=C/S(=O)(=O)CS(=O)(=O)/C=C/c2ccc(C(=O)O)cc2)cc1`, the IC50 in test [1] and in test [3] was 33 µM each time. Moreover, in test [2], the EC50 is greater than 10 µM.
`O=S(=O)(CCc1ccccc1)CS(=O)(=O)CCc1ccccc1`: the IC50 in test [4] was greater than 150 µM; in test [1], greater than 100 µM; in test [3] it was greater than 100 µM. In test [2], this compound showed an EC50 greater than 10 µM.
On to `O=S(=O)(CCc1cc(F)c(F)c(F)c1)CS(=O)(=O)CCc1cc(F)c(F)c(F)c1`, for which the 50% inhibitory concentration (IC50) is 110 µM in test [4], 900 µM in test [1] and 333 µM in test [3]. In test [2], this compound came in with an EC50 greater than 10 µM.
With `O=S(=O)(/C=C/c1ccc2c(c1)OCCO2)CS(=O)(=O)/C=C/c1ccc2c(c1)OCCO2`, the IC50 in test [1] and in test [3] was greater than 100 µM each time. This compound had an EC50 in test [2] greater than 10 µM.
Take `COc1ccc(Br)cc1/C=C/S(=O)(=O)CS(=O)(=O)/C=C/c1cc(Br)ccc1OC`: the IC50 in test [1] and in test [3] was greater than 100 µM each time. In addition, the EC50 in test [2] was greater than 10 µM.
`COc1cc(OC)c(OC)cc1/C=C/S(=O)(=O)CS(=O)(=O)/C=C/c1cc(OC)c(OC)cc1OC`: the IC50 in test [1] and in test [3] was greater than 1000 µM in each case. Further, the EC50 in test [2] is greater than 10 µM.
Regarding `O=S(=O)(/C=C/c1cc(OCc2ccccc2)c(OCc2ccccc2)c(OCc2ccccc2)c1)CS(=O)(=O)/C=C/c1cc(OCc2ccccc2)c(OCc2ccccc2)c(OCc2ccccc2)c1`, the IC50 in test [1] and in test [3] was greater than 100 µM throughout. This compound yielded an EC50 in test [2] greater than 10 µM.
For the compound `COc1cc(Br)c(/C=C/S(=O)(=O)CS(=O)(=O)/C=C/c2cc(OC)c(OC)cc2Br)cc1OC`, the IC50 was determined as 850 µM in test [1] and 500 µM in test [3]. The compound also returned an EC50 in test [2] greater than 10 µM.
On to `O=S(=O)(/C=C/c1ccccc1)CS(=O)(=O)/C=C/c1ccccc1`, for which the IC50 in test [4] was 12 µM; in test [1], greater than 100 µM; in test [3], greater than 100 µM. This compound also displayed an EC50 in test [2] of 1.2 µM. The “Ratio IC50/EC50” value in test [5] is recorded as 9.9.
Turning to `COc1cc(/C=C/S(=O)(=O)CS(=O)(=O)/C=C/c2cc(Br)c(OC)c(OC)c2)cc(Br)c1OC`, the IC50 in test [1] and in test [3] was greater than 100 µM in each case. In addition, the EC50 in test [2] is greater than 10 µM.
`O=S(=O)(/C=C/c1ccc(OCc2ccccc2)c(OCc2ccccc2)c1)CS(=O)(=O)/C=C/c1ccc(OCc2ccccc2)c(OCc2ccccc2)c1`: the IC50 in test [1] and in test [3] was greater than 100 µM in each case. This compound also came in with an EC50 in test [2] greater than 10 µM.
For the compound `O=S(=O)(/C=C/c1cc(Cl)ccc1Cl)CS(=O)(=O)/C=C/c1cc(Cl)ccc1Cl`, the IC50 in test [4] was 2.6 µM; in test [1], greater than 100 µM; in test [3] it was greater than 100 µM. A half-maximal effect in test [2] (EC50) was put at 3.4 µM. Also, in test [5], the “Ratio IC50/EC50” value was determined as 0.77.
Take `O=S(=O)(/C=C/c1ccccc1OCc1ccccc1)CS(=O)(=O)/C=C/c1ccccc1OCc1ccccc1`: the IC50 in test [1] and in test [3] was greater than 100 µM in each case. The EC50 in test [2] is greater than 10 µM.
For the compound `COc1cc(/C=C/S(=O)(=O)CS(=O)(=O)/C=C/c2cc(OC)c(OC)cc2[N+](=O)[O-])c([N+](=O)[O-])cc1OC`, the IC50 in test [1] and in test [3] was 500 µM each time. The same compound yielded an EC50 in test [2] greater than 10 µM.
As to `O=S(=O)(/C=C/c1cccc(Br)n1)CS(=O)(=O)/C=C/c1cccc(Br)n1`, the IC50 in test [1] is greater than 1000 µM; in test [3] it was 900 µM. The same compound returned an EC50 in test [2] greater than 10 µM.
For the compound `O=S(=O)(CCc1ccc(O)c(O)c1)CS(=O)(=O)CCc1ccc(O)c(O)c1`, the values for the IC50 in test [4], in test [1] and in test [3] were 170 µM, 40 µM and 17 µM, respectively. The EC50 in test [2] turned out to be 6.2 µM. The “Ratio IC50/EC50” value in test [5] worked out at 27.
Consider `O=S(=O)(/C=C/c1cc(F)c(F)c(F)c1)CS(=O)(=O)/C=C/c1cc(F)c(F)c(F)c1`, for which the values for the IC50 in test [4], in test [1] and in test [3] were 7.8 µM, greater than 100 µM and greater than 100 µM, respectively. In test [2], this compound displayed an EC50 of 2 µM. In addition, in test [5], the “Ratio IC50/EC50” value came out at 3.9.
